From article PMC10848157, “Assessing NH300094, a novel dopamine and serotonin receptor modulator with cognitive enhancement property for treating schizophrenia” (Frontiers in Pharmacology, 2024)

Experiment: Spontaneous locomotor activity test in mice
Settings: mouse, in vivo; single oral dose, male ICR mice; read-out: ED50, inhibition of spontaneous locomotor activity

Compound `O=C1CCc2cc(OCCCN3CCC(c4noc5cc(F)ccc45)CC3)cc3c2N1CC3` [NH300094, 8-(3-(4-(6-fluorobenzo [d]isoxazol-3-yl)piperidin-1-yl)propoxy)-1,2,5,6-tetrahydro-4H-pyrrolo [3,2,1-ij] quinolin-4-one] has an ED50 at 60 min of about 0.49 mg/kg.
